System: U266 cells
Assay: HLA class I ligand presentation upon carfilzomib treatment on U266 cells (LC-MS/MS)
Type: cell-based, human
Parameters: key to modulation upon carfilzomib-treatment 24 #1 / modulation upon carfilzomib-treatment 24 #2 / modulation upon carfilzomib-treatment 24 #3 / modulation upon carfilzomib-treatment 48 #1 / modulation upon carfilzomib-treatment 48 #2 / modulation upon carfilzomib-treatment 48 #3: −1: significantly down-modulated; 0: not signifcant/not detected; 1: significantly up-modulated
Details: U266 cells, vs mock-treated controls; for modulation upon carfilzomib-treatment 24 #1 / modulation upon carfilzomib-treatment 24 #2 / modulation upon carfilzomib-treatment 24 #3: 24 h after carfilzomib treatment (100 nM, 1 h); for modulation upon carfilzomib-treatment 24 #1 / modulation upon carfilzomib-treatment 48 #1: biological replicate #1; for modulation upon carfilzomib-treatment 24 #2 / modulation upon carfilzomib-treatment 48 #2: biological replicate #2; for modulation upon carfilzomib-treatment 24 #3 / modulation upon carfilzomib-treatment 48 #3: biological replicate #3; for modulation upon carfilzomib-treatment 48 #1 / modulation upon carfilzomib-treatment 48 #2 / modulation upon carfilzomib-treatment 48 #3: 48 h after carfilzomib treatment (100 nM, 1 h)
Protocol: HLA class I and II molecules were isolated using standard immunoaffinity purification as described using the pan-HLA class I specific mAb W6/32, the pan-HLA class II specific mAb T039 and the HLA-DR specific mAB L243 (produced in house).
HLA ligand extracts were analyzed in 5 technical replicates as described previously. In brief, peptide samples were separated by nanoflow HPLC (RSLCnano, ThermoFisher) using a 50 μm×25 cm PepMap RSLC column (Thermo Fisher) and a gradient ranging from 2.4 to 32.0% acetonitrile over the course of 90 min. Eluting peptides were analyzed in an online coupled LTQ Orbitrap XL mass spectrometer (Thermo Fisher) using a top 5 CID (collision induced dissociation) fragmentation method.
Data processing was performed as described previously. In brief, the Mascot search engine (Mascot 2.2.04; Matrix Science, London, UK) was implemented to search the human proteome as comprised in the Swiss-Prot database (20,279 reviewed protein sequences, September 2013) without enzymatic restriction. Potential mutated HLA ligands were searched implementing a database containing the human proteome concatenated with proteins containing single amino acid variants (SAVs) listed in the COSMIC database (http://cancer.sanger.ac.uk/cosmic/). Only recurrent SAVs described in 2 or more samples of hematological origin were included. Oxidized methionine was allowed as a dynamic modification. The false discovery rate was estimated using the Percolator algorithm and set to 5%. Peptide lengths were limited to 8-12 amino acids for HLA class I and 12-25 amino acids for HLA class II. Protein inference was disabled, allowing for multiple protein annotations of peptides. HLA annotation was performed using SYFPEITHI [46] or an extended in-house database. Experimental validation of peptide identifications and HLA annotations was performed by mass spectrometric and functional characterization of synthetic peptides for a subset of peptides.
The inventors quantitatively assessed HLA class I ligand presentation during proteasome inhibitor therapy. Observed was a considerable plasticity of the HLA class I ligandome after treatment with carfilzomib with 17.9±1.1% of MM.1S ligands and 11.2±0.7% of U266 ligands (mean of three biological replicates ±s.d.) showing significant modulation (fold-change ≥4, Po0.01 after Benjamini-Hochberg correction) at t24 h compared with mock-treated controls. Briefly, Cultured MCLs (MM.1S and U266) and primary myeloma samples were incubated with carfilzomib (100 nM, Kyprolis®, available, e.g., from Onyx Pharmaceuticals, Inc.) as an example for a proteasome inhibitor for a 1-h period, followed by three washes in PBS (Gibco) and recultured for additional 24 or 48 h. Controls were incubated with vehicle control (glucose 5%) for 1 h, followed by identical washing and incubation for 24 or 48 h. Experiments were conducted in three biological replicates where indicated.

Sequence | modulation upon carfilzomib-treatment 24 #1 | modulation upon carfilzomib-treatment 24 #2 | modulation upon carfilzomib-treatment 24 #3 | modulation upon carfilzomib-treatment 48 #1 | modulation upon carfilzomib-treatment 48 #2 | modulation upon carfilzomib-treatment 48 #3
AEQEIARLVL | 0 | 0 | 0 | 0 | 0 | 0
ALWGRTTLK | 0 | 0 | 0 | 0 | 0 | 0
APFQGDQRSL | 0 | 1 | 1 | 0 | 1 | 0
APRHPSTNSLL | 0 | 1 | 0 | 1 | 1 | 0
FLWDEGFHQL | 0 | 0 | 0 | 0 | 0 | 0
GETAFAFHL | 0 | 0 | 0 | 0 | 0 | 0
GEVAPSMFL | 0 | 0 | 0 | 0 | 0 | 0
GEVQDLLVRL | 0 | 0 | 0 | 0 | 0 | 0
GPRPITQSEL | 0 | 0 | 0 | 0 | 0 | 0
IESHPDNAL | 0 | 0 | 0 | 0 | 0 | 0
IIFDRPLLY | 0 | 0 | 0 | 0 | 0 | −1
ILRDGITAGK | 0 | 0 | 0 | 0 | 0 | 0
ILWETVPSM | 0 | 0 | 0 | 0 | 0 | 0
KAMEAASSL | −1 | −1 | −1 | −1 | −1 | −1
KAVNPGRSL | 0 | 0 | 0 | 0 | 0 | 0
KEGLILPETL | 1 | 1 | 0 | 0 | 0 | 0
KILKPVKKK | 0 | 0 | 0 | 0 | 0 | 0
KLPLPLPPRL | 0 | 0 | 0 | 0 | 0 | 0
KLSSLIILM | 0 | 0 | 0 | 0 | 0 | 0
KPKDPLKISL | −1 | −1 | −1 | 0 | −1 | −1
KPSTKALVL | 0 | 0 | 0 | 0 | 0 | 0
KTEVHIRPK | 0 | 0 | 0 | 0 | 0 | 0
